Nine compounds from ChEMBL document CHEMBL1149406, “Isolation and cholinesterase-inhibition studies of sterols from Haloxylon recurvum” (Bioorg Med Chem Lett, 2006) can be followed below.

As a reminder, the IC50 is the concentration needed to halve the response being measured. One may read the Ki as a measure of affinity in units of concentration, obtained from inhibition or displacement. A higher Ki goes with a looser hold on the target.

One test addresses Acetylcholinesterase (Electrophorus electricus, UniProt O42275). The test is described as follows: Inhibitory activity against AChE from electric eel.
In a further test the target is Butyrylcholinesterase (Equus caballus, UniProt Q9N1N9). The test is described as follows: Inhibitory activity against BuChE from horse serum.

Molecules are shown by their SMILES.

Chain of Acetylcholinesterase (O42275 whole entry): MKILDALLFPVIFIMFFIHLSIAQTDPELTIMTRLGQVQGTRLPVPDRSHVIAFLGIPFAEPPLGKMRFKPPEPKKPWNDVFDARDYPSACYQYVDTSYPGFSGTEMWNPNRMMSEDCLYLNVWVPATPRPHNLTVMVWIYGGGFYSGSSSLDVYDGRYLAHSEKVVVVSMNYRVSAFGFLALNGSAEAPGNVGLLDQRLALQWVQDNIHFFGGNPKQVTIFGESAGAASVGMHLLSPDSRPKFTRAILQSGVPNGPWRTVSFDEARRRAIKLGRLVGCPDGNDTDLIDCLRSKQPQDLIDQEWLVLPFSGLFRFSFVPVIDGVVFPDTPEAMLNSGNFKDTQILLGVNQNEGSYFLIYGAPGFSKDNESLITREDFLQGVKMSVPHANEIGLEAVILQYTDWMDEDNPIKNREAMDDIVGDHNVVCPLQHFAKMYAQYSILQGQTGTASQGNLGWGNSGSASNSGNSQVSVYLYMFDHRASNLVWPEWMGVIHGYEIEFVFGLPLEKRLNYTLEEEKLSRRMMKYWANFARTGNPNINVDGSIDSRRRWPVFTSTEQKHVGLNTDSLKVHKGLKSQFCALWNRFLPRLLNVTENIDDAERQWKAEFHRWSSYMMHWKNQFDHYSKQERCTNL
Chain of Butyrylcholinesterase (Q9N1N9 whole entry): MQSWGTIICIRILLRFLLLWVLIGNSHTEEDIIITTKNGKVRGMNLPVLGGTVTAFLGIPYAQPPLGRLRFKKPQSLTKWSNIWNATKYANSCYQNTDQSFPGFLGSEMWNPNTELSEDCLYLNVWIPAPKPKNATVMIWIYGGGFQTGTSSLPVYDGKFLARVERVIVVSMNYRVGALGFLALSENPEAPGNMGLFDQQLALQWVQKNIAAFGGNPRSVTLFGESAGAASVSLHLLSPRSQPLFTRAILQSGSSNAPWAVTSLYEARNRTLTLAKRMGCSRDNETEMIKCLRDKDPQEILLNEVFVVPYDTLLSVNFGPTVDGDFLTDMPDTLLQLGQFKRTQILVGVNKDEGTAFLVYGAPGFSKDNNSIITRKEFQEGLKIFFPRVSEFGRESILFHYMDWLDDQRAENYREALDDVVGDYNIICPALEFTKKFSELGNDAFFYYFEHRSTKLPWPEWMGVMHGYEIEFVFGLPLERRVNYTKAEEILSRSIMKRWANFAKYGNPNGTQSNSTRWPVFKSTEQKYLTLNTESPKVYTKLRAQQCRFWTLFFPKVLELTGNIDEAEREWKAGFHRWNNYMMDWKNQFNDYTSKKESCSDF

At Acetylcholinesterase, `CC[C@H](/C=C/[C@@H](C)[C@H]1CC[C@@H]2[C@]1(C)CC=C1[C@]23C=C[C@]2(C[C@@H](O)CC[C@]12C)OO3)C(C)C` displayed an IC50 of 26.4 µM and a Ki of 25.5 µM. At Butyrylcholinesterase, this compound came in with an IC50 of 6.9 µM and a Ki of 5 µM.

On to `CCC(CC[C@@H](C)[C@H]1CC[C@H]2[C@@H]3C=CC4(O)C[C@@H](O)CC[C@]4(C)[C@H]3CC[C@]12C)C(C)C` (some centres undefined), for which the values for the Ki at Acetylcholinesterase and at Butyrylcholinesterase were 4 µM and 4.2 µM, respectively.

At Acetylcholinesterase, `CC[C@H](/C=C/[C@@H](C)[C@H]1CC[C@H]2[C@@H]3C=CC4C[C@@H](O)CC[C@]4(C)C3=CC[C@]12C)C(C)C` (some centres undefined) yielded an IC50 of 19.2 µM and a Ki of 20.6 µM. For the same compound, on Butyrylcholinesterase, the IC50 was determined as 4.5 µM and the Ki stood at 4.6 µM.

`CC[C@H](C[C@@H](O)[C@@H](C)[C@H]1CCC2C3CCC4=CC(=O)CC[C@]4(C)C3=CC[C@@]21C)C(C)C` (some centres undefined) [HALOXYSTEROL C]: on Acetylcholinesterase, the IC50 turned out to be 1 µM and the Ki worked out at 1.1 µM. In addition, on Butyrylcholinesterase, the IC50 worked out at 17.8 µM and the Ki worked out at 18 µM.

On Acetylcholinesterase, `CC[C@H](CC[C@@H](C)[C@H]1CC[C@H]2[C@@H]3CCC4=C[C@@H](O)CC[C@]4(C)[C@H]3CC[C@]12C)C(C)C` [LAWSARITOL] showed an IC50 of 15.2 µM and a Ki of 16.1 µM. At Butyrylcholinesterase, this compound yielded an IC50 of 3.9 µM and a Ki of 3.7 µM.

As for `CC[C@H](C[C@@H](O)[C@@H](C)[C@H]1CC[C@H]2[C@@H]3C[C@@H](O)[C@@]4(O)C[C@@H](O)C[C@H](O)[C@]4(C)[C@H]3CC[C@]12C)C(C)C`, the IC50 against Acetylcholinesterase worked out at 17.2 µM; on Butyrylcholinesterase, 2.5 µM. For the same compound, the Ki on Acetylcholinesterase amounted to 17 µM; on Butyrylcholinesterase, 2.2 µM.

With `CC[C@H](C[C@@H](O)[C@@H](C)[C@H]1CCC2C3C=CC4=C[C@@H](O)C[C@H](O)[C@]4(C)C3CC[C@@]21C)C(C)C` (some centres undefined) [HALOXYSTEROL B], the IC50 was 0.89 µM at Acetylcholinesterase and 2.3 µM on Butyrylcholinesterase. Further, the results for the Ki on Acetylcholinesterase and on Butyrylcholinesterase were 0.85 µM and 2.5 µM, respectively.

Turning to `CCC(CC[C@@H](C)[C@H]1CC[C@H]2C3=CC(O)C4(O)C[C@@H](O)CC[C@]4(C)[C@H]3CC[C@]12C)C(C)C` (some centres undefined), at Acetylcholinesterase, the midpoint of inhibition, the IC50, lay at 13.7 µM and the Ki was determined as 12.6 µM. On Butyrylcholinesterase, this compound had an IC50 of 2 µM and a Ki of 2.5 µM.

Turning to `CC[C@H](C[C@@H](O)[C@@H](C)[C@H]1CCC2C3CC=C4C[C@@H](O)C[C@H](O)[C@]4(C)C3CC[C@@]21C)C(C)C` (some centres undefined) [HALOXYSTEROL A], at Acetylcholinesterase, the IC50 turned out to be 8.3 µM and the affinity corresponds to a Ki of 7.6 µM. At Butyrylcholinesterase, this compound registered an IC50 of 4.7 µM and a Ki of 4.5 µM.
